Experimental findings from patent US11364211B2, “Methods for selecting phosphatase selective and non-selective phosphatase inhibitors” (MEDICAL RESEARCH COUNCIL, priority 2015, dated 2022) are described below.

“Also recorded” adds a separate entry of the source.

One experiment deals with HD-N171-82Q mice. As to the kind of experiment: Huntington's disease mouse model, motor performance (rotarod). It counts as in vivo. Particulars: 2 mg/kg orally daily for 4 weeks. As to the method: To assess the efficacy of a compound of Example 1 in ameliorating a disease phenotype, 28-day old transgenic mice or littermate control were orally administered daily with a compound of Example 1 (2 mg/kg) or vehicle for a duration of 4 weeks. Disease progression was evaluated by weighting the mice during the treatment and by assessing their motor performances after 4 weeks of treatment.
Eight weeks old HD-N171-82Q mice and their wild-type littermates were first habituated for 1 min on a static rotor and 1 min at constant speed (4 rpm). Habituation was repeated. The test session consisted of four trials with 15 min intervals in between. For each trial 5 mice were placed on an accelerating rotor (4 to 40 rpm) and the latency to fall was recorded, with a maximum limit for individual animal set at 300 s.
To produce an experimental group HD-N171-82Q transgenic males were crossed with C3H/B6 F1 wild type females. 4 weeks old transgenic males and their wild type littermate male controls were randomized in different groups and treated with TST3 for 4 weeks.
TST3 treatment of HD-N171-82Q transgenic males and their wild type littermate male controls started at 4 weeks of age and was continued for 4 weeks before the test. […] In each trial mice were allowed to run on an accelerating rod from 4 to 40 rpm for up to 300 seconds and the latency to fall was counted. […]
On the technique in general: In the rotarod test animals must keep their balance on a rotating rod.

The target of a further experiment is T1, R15A (Homo sapiens, UniProt O75807).
T1 construct: the cDNAs encoding amino acids 325-636 of PPP1R15A; MBP (N); His (C); made in house; host or cells: E. coli BL21-Gold
T1 sequence (O75807 325-636, stated change not applied): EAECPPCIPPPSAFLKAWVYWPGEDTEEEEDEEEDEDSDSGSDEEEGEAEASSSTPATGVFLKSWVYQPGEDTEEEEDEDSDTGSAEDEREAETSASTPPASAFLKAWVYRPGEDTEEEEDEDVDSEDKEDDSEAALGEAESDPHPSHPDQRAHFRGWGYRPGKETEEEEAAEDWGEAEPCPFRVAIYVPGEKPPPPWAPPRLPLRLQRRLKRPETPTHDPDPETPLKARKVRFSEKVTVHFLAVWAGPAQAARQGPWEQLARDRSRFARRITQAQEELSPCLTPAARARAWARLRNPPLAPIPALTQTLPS
As to the kind of experiment: SPR of recombinant R15A binding to immobilized bio-GBZ. The conditions noted are these: isolated R15A fragment, compound immobilized on chip. As to the method:
B. SPR sensorgrams of R15A and R15B binding to bio-GBZ immobilized on the SPR sensor chip surface. R15A/B concentration=0.0244-12.5 μM.
Here we set out to develop a generalizable strategy to identify new selective phosphatase inhibitors. First, we expressed and purified R15A and R15 B (FIG. 12) and used surface plasmon resonance (SPR) to measure binding affinities of known R15A inhibitors to their targets. We tried to immobilized R15 on SPR chip but this method produced inconsistent results, probably because the natively unstructured proteins precipitate on the chip. We therefore used biotynilated guanabenz (GBZ) (7) that we immobilized on the chip and tested binding of the proteins on the immobilized compound (FIGS. 13A and 13B).
A Biacore T200 (GE Healthcare) system was used for all experiments and biotinylated GBZ (bio-GBZ) (Tsaylter 2011) or bio-PP1 was captured on a Sensor Chip SA (GE Healthcare). […]

For the compound `[H]/N=C(\N)NN=Cc1cccc(Cl)c1Cl` [Example 1, (E)-2-(2,3-dichlorobenzylidene)hydrazine-1-carboximidamide], the “motor performance / disease prevention in Huntington's disease mice” value with HD-N171-82Q mice is “ameliorates Huntington's disease; also recorded: prevented the motor performances impairment; also recorded: preventing disease”.

A word on the Kd: it is a measure of binding affinity in units of concentration. Regarding `N=C(N)N/N=C/c1c(Cl)cccc1Cl` [Guanabenz, reference compound], on R15A, the Kd was 11 µM.
